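Method: 48-hour compound exposure of cells in 96-well plates, five concentrations, linear interpolation of endpoints. GI50 = concentration required for 50% inhibition of growth.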 The source made the active and inactive calls. Rule as the data show it: active = GI50 up to about 1.1 µM and inactive = higher.
Tests used:
Assay in all cases: NCI anticancer screen, dose series, 48 h
[1] = test system: SR
[2] = test system: ACHN
[3] = test system: SF-539
[4] = test system: CCRF-CEM
[5] = test system: COLO 205
[6] = test system: K562
[7] = test system: SF-268
[8] = test system: HL-60
[9] = test system: IGROV-1
[10] = test system: UO-31
[11] = test system: NCI-H226
[12] = test system: SF-295
[13] = test system: SK-MEL-28
[14] = test system: HCT-116
[15] = test system: LOX IMVI
[16] = test system: MDA-MB-231
[17] = test system: TK-10
[18] = test system: Malme-3M
[19] = test system: OVCAR-4
[20] = test system: BT-549
[21] = test system: UACC-257
[22] = test system: OVCAR-8
[23] = test system: RPMI-8226
[24] = test system: HOP-62
[25] = test system: SW-620
[26] = test system: MDA-N
[27] = test system: A549
[28] = test system: T47D
[29] = test system: HOP-92
[30] = test system: SK-MEL-2
[31] = test system: UACC-62
[32] = test system: HCT-15
[33] = test system: SK-OV-3
[34] = test system: RXF 393
[35] = test system: SN12C
[36] = test system: SNB-75
[37] = test system: U-251
[38] = test system: NCI-H460
[39] = test system: OVCAR-3
[40] = test system: M14
[41] = test system: SNB-19
[42] = test system: MDA-MB-435
[43] = test system: MCF7
[44] = test system: PC-3
[45] = test system: EKVX
[46] = test system: NCI-H23
[47] = test system: NCI/ADR-RES
[48] = test system: CAKI-1
[49] = test system: 786-0
[50] = test system: NCI-H522
[51] = test system: DU-145
[52] = test system: A498
[53] = test system: HT-29
[54] = test system: SK-MEL-5
[55] = test system: HCC 2998
[56] = test system: OVCAR-5
[57] = test system: MOLT-4
[58] = test system: Hs-578T
[59] = test system: KM12
[60] = test system: KM-20L2
[61] = test system: XF498
[62] = test system: DLD-1
[63] = test system: DMS-114
[64] = test system: LXFL 529
[65] = test system: SNB-78
[66] = test system: HOP-18
[67] = test system: M19-MEL
[68] = test system: DMS-273

With `C[N+]1(CCCCN2c3ccccc3Sc3cc(N=[N+]=[N-])ccc32)CCN(C(=O)CCNC(=O)Cc2ccc(C(=O)c3ccccc3)cc2)CC1` the GI50 [1] was 18.7 µM (inactive), the GI50 [2] was 19.2 µM (inactive) and the GI50 [3] was 32.9 µM (inactive). For the same molecule, the GI50 [4] was 23.3 µM (inactive), the GI50 [5] was 14.7 µM (inactive) and the GI50 [6] was 7.19 µM (inactive). The GI50 [7] was 23.4 µM (inactive), the GI50 [8] was 9.1 µM (inactive) and the GI50 [9] was 23.4 µM (inactive). For the same molecule, the GI50 [10] was 19.3 µM (inactive), the GI50 [11] was 36.1 µM (inactive) and the GI50 [12] was 21.7 µM (inactive). For the same molecule, the GI50 [13] was 16 µM (inactive), the GI50 [14] was 25.9 µM (inactive) and the GI50 [15] was 20.3 µM (inactive). For the same molecule, the GI50 [16] was 25.4 µM (inactive), the GI50 [17] was 11.4 µM (inactive) and the GI50 [18] was 18.7 µM (inactive). The GI50 [19] was 21.2 µM (inactive), the GI50 [20] was 29.2 µM (inactive) and the GI50 [21] was 31.3 µM (inactive). The GI50 [22] was 34.7 µM (inactive), the GI50 [23] was 18.7 µM (inactive) and the GI50 [24] was 22.6 µM (inactive). For the same molecule, the GI50 [25] was 29.2 µM (inactive), the GI50 [26] was 24.8 µM (inactive) and the GI50 [27] was 27.4 µM (inactive). For the same molecule, the GI50 [28] was 21.3 µM (inactive), the GI50 [29] was 18.9 µM (inactive) and the GI50 [30] was 29.4 µM (inactive). The GI50 [31] was 28.5 µM (inactive), the GI50 [32] was 22.8 µM and the GI50 [33] was 29 µM (inactive). The GI50 [34] was 31.5 µM (inactive), the GI50 [35] was 21.2 µM (inactive) and the GI50 [36] was 20.3 µM (inactive). The GI50 [37] was 21.6 µM (inactive), the GI50 [38] was 24.6 µM (inactive) and the GI50 [39] was 20.4 µM (inactive). For the same molecule, the GI50 [40] was 23.4 µM (inactive), the GI50 [41] was 26.9 µM (inactive) and the GI50 [42] was 26.4 µM (inactive). For the same molecule, the GI50 [43] was 19.7 µM (inactive), the GI50 [44] was 20.5 µM (inactive) and the GI50 [45] was 31.9 µM (inactive). The GI50 [46] was 26.4 µM (inactive), the GI50 [47] was 35.9 µM (inactive) and the GI50 [48] was 25.2 µM (inactive). For the same molecule, the GI50 [49] was 27 µM (inactive), the GI50 [50] was 24.4 µM (inactive) and the GI50 [51] was 19.1 µM (inactive). The GI50 [52] was 26.4 µM (inactive), the GI50 [53] was 18.1 µM (inactive) and the GI50 [54] was 20.6 µM (inactive). The GI50 [55] was 16.1 µM (inactive), the GI50 [56] was 21.7 µM (inactive) and the GI50 [57] was 23.1 µM (inactive). The GI50 [58] was 34 µM (inactive) and the GI50 [59] was 24.3 µM (inactive).
`CCOc1ccccc1N1C(=O)C(=O)C(c2nc3ccccc3s2)C(=O)C1=O` was tested, and the GI50 [2] was 5.86 µM (inactive), the GI50 [60] was > 100 µM (inactive) and the GI50 [61] was > 100 µM (inactive). The GI50 [3] was > 100 µM (inactive), the GI50 [62] was > 100 µM (inactive) and the GI50 [63] was > 100 µM (inactive). The GI50 [5] was > 100 µM (inactive), the GI50 [7] was 82.6 µM (inactive) and the GI50 [9] was 19.3 µM (inactive). For the same molecule, the GI50 [10] was 34.7 µM (inactive), the GI50 [11] was 69.5 µM (inactive) and the GI50 [12] was 41.7 µM (inactive). The GI50 [13] was > 100 µM (inactive), the GI50 [14] was 35.8 µM (inactive) and the GI50 [64] was 35.5 µM (inactive). For the same molecule, the GI50 [15] was 55.5 µM (inactive), the GI50 [17] was 24.5 µM (inactive) and the GI50 [18] was 33.8 µM (inactive). For the same molecule, the GI50 [19] was 3.48 µM (inactive), the GI50 [21] was > 100 µM (inactive) and the GI50 [22] was 41.5 µM (inactive). For the same molecule, the GI50 [23] was > 100 µM (inactive), the GI50 [24] was 46.8 µM (inactive) and the GI50 [25] was 58.9 µM (inactive). For the same molecule, the GI50 [27] was 20 µM (inactive), the GI50 [29] was 36.2 µM (inactive) and the GI50 [30] was > 100 µM (inactive). For the same molecule, the GI50 [65] was > 100 µM (inactive), the GI50 [31] was > 100 µM (inactive) and the GI50 [32] was 76.9 µM. The GI50 [33] was 30.9 µM (inactive), the GI50 [34] was > 100 µM (inactive) and the GI50 [35] was 79.4 µM (inactive). The GI50 [36] was 23.8 µM (inactive), the GI50 [37] was 49.3 µM (inactive) and the GI50 [38] was 26.4 µM (inactive). For the same molecule, the GI50 [39] was 17.4 µM (inactive), the GI50 [40] was > 100 µM (inactive) and the GI50 [41] was 56.5 µM (inactive). For the same molecule, the GI50 [45] was > 100 µM (inactive), the GI50 [46] was > 100 µM (inactive) and the GI50 [48] was 38.5 µM (inactive). The GI50 [49] was 5.36 µM (inactive), the GI50 [66] was 8.22 µM (inactive) and the GI50 [52] was 16.6 µM (inactive). The GI50 [53] was 39.8 µM (inactive), the GI50 [55] was > 100 µM (inactive) and the GI50 [67] was 69.5 µM (inactive). The GI50 [56] was > 100 µM (inactive), the GI50 [68] was > 100 µM (inactive) and the GI50 [59] was 98.2 µM (inactive).
With `COC(=O)C1CCc2nnc(-c3ccccc3)n21` (stereo not given) the GI50 [2] was > 100 µM (inactive), the GI50 [60] was > 100 µM (inactive) and the GI50 [61] was > 100 µM (inactive). For the same molecule, the GI50 [3] was > 100 µM (inactive), the GI50 [62] was > 100 µM (inactive) and the GI50 [63] was > 100 µM (inactive). For the same molecule, the GI50 [4] was > 100 µM (inactive), the GI50 [5] was > 100 µM (inactive) and the GI50 [6] was > 100 µM (inactive). For the same molecule, the GI50 [7] was > 100 µM (inactive), the GI50 [8] was > 100 µM (inactive) and the GI50 [9] was > 100 µM (inactive). For the same molecule, the GI50 [10] was > 100 µM (inactive), the GI50 [11] was > 100 µM (inactive) and the GI50 [12] was > 100 µM (inactive). For the same molecule, the GI50 [13] was > 100 µM (inactive), the GI50 [14] was > 100 µM (inactive) and the GI50 [64] was > 100 µM (inactive). The GI50 [15] was > 100 µM (inactive), the GI50 [17] was > 100 µM (inactive) and the GI50 [18] was > 100 µM (inactive). For the same molecule, the GI50 [19] was > 100 µM (inactive), the GI50 [21] was > 100 µM (inactive) and the GI50 [22] was > 100 µM (inactive). For the same molecule, the GI50 [23] was > 100 µM (inactive), the GI50 [24] was > 100 µM (inactive) and the GI50 [25] was > 100 µM (inactive). For the same molecule, the GI50 [27] was > 100 µM (inactive), the GI50 [29] was > 100 µM (inactive) and the GI50 [30] was > 100 µM (inactive). For the same molecule, the GI50 [65] was > 100 µM (inactive), the GI50 [31] was > 100 µM (inactive) and the GI50 [32] was greater than 100 µM. For the same molecule, the GI50 [34] was > 100 µM (inactive), the GI50 [35] was > 100 µM (inactive) and the GI50 [36] was > 100 µM (inactive). For the same molecule, the GI50 [37] was > 100 µM (inactive), the GI50 [38] was > 100 µM (inactive) and the GI50 [39] was > 100 µM (inactive). The GI50 [40] was > 100 µM (inactive), the GI50 [41] was > 100 µM (inactive) and the GI50 [45] was > 100 µM (inactive). For the same molecule, the GI50 [46] was > 100 µM (inactive), the GI50 [48] was > 100 µM (inactive) and the GI50 [49] was > 100 µM (inactive). The GI50 [50] was > 100 µM (inactive), the GI50 [52] was > 100 µM (inactive) and the GI50 [53] was > 100 µM (inactive). For the same molecule, the GI50 [54] was > 100 µM (inactive), the GI50 [55] was > 100 µM (inactive) and the GI50 [67] was > 100 µM (inactive). The GI50 [56] was > 100 µM (inactive), the GI50 [57] was > 100 µM (inactive) and the GI50 [68] was > 10 µM (inactive). For the same molecule, the GI50 [59] was > 100 µM (inactive).
